Measured values published in patent US10160744B2, “Quinoline compounds suitable for treating disorders that respond to the modulation of the serotonin 5-HT6 receptor” (Abbvie Deutschland GmbH & Co. KG, priority 2016, dated 2018).
pKi: −log10 of the molar value.

How the values were obtained:
h-5-HT6 receptor = target: T1, h-5-HT6 receptor (Homo sapiens, UniProt P50406); assay: 5-HT6 receptor binding assay (displacement of [3H]-LSD); details: cloned human 5-HT6 receptor, HEK293 membranes, 1 nM [3H]-LSD
T1 construct: expressed in transfected cells
Procedure: Displacement of radioligands binding to the following cloned human receptors
1. Preparation of Membranes by Ultrasonic Treatment and Differential Centrifugation
Cells from stable clonal cell lines expressing the corresponding receptor (5-HT6, α1-adrenergic, dopamine D2 or histamine H1 receptors) were washed with PBS (w/o Ca^++, Mg^++) and harvested in PBS with 0.02% EDTA. The cells were collected by centrifugation at 500 g for 10 min. at 4° C., washed with PBS and centrifuged (500 g, 10 min. 4° C.). The pellets were stored at −80° C. until use. For membrane preparation, the thawed cell pellet was resuspended in ice-cold sucrose buffer (0.25 M sucrose, 10 mM Hepes (pH 7.4), 1 mM Phenylmethylsulfonyl fluoride (PMSF) in DMSO, 5 μg/ml Pepstatin-A, 3 mM EDTA, 0.025% Bacitracin) and homogenized with a Branson Sonifier W-250 (Settings: Timer 4; Output Control 3; Duty Cycle constant; 2 to 3 cycles). Cell disruption was checked with the aid of a microscope. Remaining unbroken cells were pelleted at 1.000 g for 10 min. at 4° C. The sucrose buffer supernatant was then centrifuged at 60.000 g for 1 h at 4° C. (Beckman Ultrazentrifuge XL 80). The pellet was resuspended in 30 ml ice-cold Tris buffer (20 mM TRIS (pH 7.4), 5 μg/ml Pepstatin A, 0.1 mM PMSF, 3 mM EDTA) by pipetting through a 10 ml serological pipet and centrifuged for 1 h at 4° C. at 60.000 g. A final resuspension was performed in a small volume of ice-cold Tris buffer (see above) by pressing through a serological pipet followed by ultrasonic treatment with a Branson Sonifier W-250 (Settings: Timer 1; Output Control 3; Duty Cycle constant; 1 cycle). Protein concentration was determined (BCA-Kit; Pierce) and aliquots stored at −80° C. or in liquid nitrogen for long-term storage.
2. Receptor Binding Experiments
All receptor binding experiments were carried out in the corresponding assay buffer in a total volume of 200 μl in the presence of various concentrations of test compound (10^−5 M to 10^−9 M, tenfold serial dilution, duplicate determinations). The assays were terminated by filtration on polyethylenimine (PEI 0.1% or 0.3%) presoaked Packard Unifilter Plates (GF/C or GF/B) with a Tomtec MachIII U 96 well-plate harvester. After the plates had been dried for 2 h at 55° C. in a drying chamber scintillation cocktail (BetaPlate Scint; PerkinElmer) was added. Radioactivity was measured in a Microbeta Trilux two hours after the addition of the scintillation mixture. Data derived from liquid scintillation counting were analysed by iterative non-linear regression analysis with the use of the Statistical Analysis System (SAS): a program similar to “LIGAND” as described by Munson and Rodbard (Analytical Biochemistry 107, 220-239 (1980).
a) 5-HT6 Receptor Binding Assay
HEK293 cells stably expressing the h-5-HT6 receptor (NCBI Reference Sequence XM 001435) were cultured in RPMI1640 medium supplemented with 25 mM HEPES, 10% fetal calf serum and 1-2 mM glutamine. The membrane preparation was performed as described in section 1. […] Non-specific binding was defined with 1 μM methiothepin. The binding reaction was carried out for 3.5 h at room temperature. During the incubation, the plates were shaken on a plate shaker at 100 rpm and terminated by filtration on Packard Unifilter GF/C (0.1% PEI) plates, followed by 2 wash cycles with ice-cold 50 mM Tris-HCl, 5 mM CaCl2.
Data derived from liquid scintillation counting were analyzed by iterative non-linear regression analysis with the use of the Statistical Analysis System (SAS): a program similar to “LIGAND” as described by Munson and Rodbard (Anal. Biochem. 1980, 107, 220-239). Fitting was performed according to formulae described by Feldman (Anal. Biochem. 1972, 48, 317-338). IC50, nH and Ki values were expressed as geometrical mean.

[1] = Metabolic stability in human liver microsomes (microsomal clearance); format: in vitro ADME; details: pH 7.4; human liver microsomes 0.25 mg protein/mL, 0.5 μM compound, NADPH, 37° C.; read-out: mClint
Procedure: Samples of the tested compounds (0.5 μM) were preincubated together with human liver microsomes (0.25 mg of microsomal protein/mL) in 0.05 M potassium phosphate buffer of pH 7.4 in microtiter plates at 37° C. for 5 minutes. The reaction was started by adding NADPH (1.0 mM). After 0, 5, 10, 15, 20 and 30 minutes, an aliquot was removed, the reaction was cooled and stopped by adding twice the amount of quench solution consisting of acetonitrile/methanol 1:1, and containing 0.2 μM carbutamide as internal standard. The samples were frozen until analyzed. The remaining concentration of undegraded test substance was determined by liquid chromatography-tandem mass spectrometry (LC-MS/MS). The half-life (t1/2) was determined from the gradient of the ratio of the signal of (test substance/internal standard)/unit time plot, allowing the calculation of the half-life of the test substance, assuming first order kinetics, from the decrease in the concentration of the compound with time. The microsomal clearance (mClint) was calculated as follows: mClint=((ln(2)/t 1/2)/Microsomal Protein Concentration (mg/ml))*1000, leading to the unit of μL/min/mg.

T1 sequence (P50406 whole entry): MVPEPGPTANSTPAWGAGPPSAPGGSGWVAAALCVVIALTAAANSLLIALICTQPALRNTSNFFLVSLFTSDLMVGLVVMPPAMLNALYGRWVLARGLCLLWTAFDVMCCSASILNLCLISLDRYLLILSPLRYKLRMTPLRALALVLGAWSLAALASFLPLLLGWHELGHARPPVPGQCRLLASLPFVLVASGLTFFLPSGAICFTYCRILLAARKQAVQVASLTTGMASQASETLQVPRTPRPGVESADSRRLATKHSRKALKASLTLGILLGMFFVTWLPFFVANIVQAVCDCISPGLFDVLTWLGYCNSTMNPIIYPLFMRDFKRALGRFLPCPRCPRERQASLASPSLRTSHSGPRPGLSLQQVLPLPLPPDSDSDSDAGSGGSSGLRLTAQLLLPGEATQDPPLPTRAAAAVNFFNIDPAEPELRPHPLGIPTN

With O=S(=O)(c1cccc(F)c1)c1cnc2c(N3CCC[C@@H](O)C3)cccc2c1 [Example 20, (3R)-1-[3-(3-Fluorophenyl)sulfonyl-8-quinolyl]piperidin-3-ol] the pKi (h-5-HT6 receptor) was > 8.00 and the microsomal CLint at 0.5 μM [1] was 30 to 60 µL/min/mg.
In the case of COc1ccc(C)cc1S(=O)(=O)c1cnc2c(N3CC(O)C3)cccc2c1 [Example 40, 1-[3-(2-Methoxy-5-methyl-phenyl)sulfonyl-8-quinolyl]azetidin-3-ol], the pKi (h-5-HT6 receptor) was 7.00 to 8.00.
In the case of O=S(=O)(c1cccc(F)c1)c1cnc2c(N3CCC(O)CC3)cccc2c1 [Example 9, 1-[3-(3-Fluorophenyl)sulfonyl-8-quinolyl]piperidin-4-ol], the pKi (h-5-HT6 receptor) was > 8.00 and the microsomal CLint at 0.5 μM [1] was < 30 µL/min/mg.
In the case of O=C(O)CC1CCCN(c2cccc3cc(S(=O)(=O)c4cccc(C(F)(F)F)c4)cnc23)C1 (centres unmarked) [Example 58, 2-[1-[3-[3-(Trifluoromethyl)phenyl]sulfonyl-8-quinolyl]-3-piperidyl]acetic Acid], the microsomal CLint at 0.5 μM [1] was 30 to 60 µL/min/mg.
For O=C(O)c1cccc(S(=O)(=O)c2cnc3c(N4CCC(C(=O)O)CC4)cccc3c2)c1 [Example 49, 1-[3-(3-Carboxyphenyl)sulfonyl-8-quinolyl]piperidine-4-carboxylic Acid], the microsomal CLint at 0.5 μM [1] was < 30 µL/min/mg.
In the case of O=S(=O)(c1ccccc1)c1cnc2c(N3C[C@H](O)C[C@H](O)C3)cccc2c1 [Example 36, (3R,5S)-1-[3-(Benzenesulfonyl)-8-quinolyl]piperidine-3,5-diol], the pKi (h-5-HT6 receptor) was > 8.00 and the microsomal CLint at 0.5 μM [1] was < 30 µL/min/mg.
In the case of O=S(=O)(c1cccc(C(F)(F)F)c1)c1cnc2c(N3CC[C@@H](O)C3)cccc2c1 [Example 19, (3R)-1-[3-[3-(Trifluoromethyl)phenyl]sulfonyl-8-quinolyl]pyrrolidin-3-ol], the pKi (h-5-HT6 receptor) was 7.00 to 8.00 and the microsomal CLint at 0.5 μM [1] was 30 to 60 µL/min/mg.
With O=S(=O)(c1ccccc1)c1cnc2c(N3CC[C@@H](O)[C@@H](O)C3)cccc2c1 [Example 41, (3S,4R)-1-[3-(Benzenesulfonyl)-8-quinolyl]piperidine-3,4-diol] the pKi (h-5-HT6 receptor) was > 8.00 and the microsomal CLint at 0.5 μM [1] was < 30 µL/min/mg.
In the case of O=C(O)[C@H]1CCN(c2cccc3cc(S(=O)(=O)c4cccc(C(F)(F)F)c4)cnc23)C1 [Example 11, (3S)-1-[3-[3-(Trifluoromethyl)phenyl]sulfonyl-8-quinolyl]pyrrolidine-3-carboxylic Acid], the pKi (h-5-HT6 receptor) was 7.00 to 8.00.
For O=C(O)C1CN(c2cccc3cc(S(=O)(=O)c4cccc(C(F)(F)F)c4)cnc23)C1 [Example 44, 1-[3-[3-(Trifluoromethyl)phenyl]sulfonyl-8-quinolyl]azetidine-3-carboxylic Acid], the pKi (h-5-HT6 receptor) was 7.00 to 8.00 and the microsomal CLint at 0.5 μM [1] was < 30 µL/min/mg.
For O=S(=O)(c1cccc(F)c1)c1cnc2c(N3CCC[C@H](O)C3)cccc2c1 [Example 27, (3S)-1-[3-(3-Fluorophenyl)sulfonyl-8-quinolyl]piperidin-3-ol], the pKi (h-5-HT6 receptor) was > 8.00 and the microsomal CLint at 0.5 μM [1] was 30 to 60 µL/min/mg.
For O=S(=O)(c1cccc(N2CCC(O)CC2)c1)c1cnc2c(N3CCC(O)CC3)cccc2c1 [Example 16, 1-[3-[[8-(4-Hydroxy-1-piperidyl)-3-quinolyl]sulfonyl]phenyl]piperidin-4-ol], the pKi (h-5-HT6 receptor) was 7.00 to 8.00 and the microsomal CLint at 0.5 μM [1] was 30 to 60 µL/min/mg.
For O=C(O)C1CCN(c2cccc3cc(S(=O)(=O)c4cccc(N5CCCC5)c4)cnc23)CC1 [Example 53, 1-[3-(3-Pyrrolidin-1-ylphenyl)sulfonyl-8-quinolyl]piperidine-4-carboxylic Acid], the microsomal CLint at 0.5 μM [1] was 30 to 60 µL/min/mg.
Work on O=C(O)C1CCN(c2cccc3cc(S(=O)(=O)c4cccc(OC(F)(F)F)c4)cnc23)CC1 [Example 51, 1-[3-[3-(Trifluoromethoxy)phenyl]sulfonyl-8-quinolyl]piperidine-4-carboxylic Acid] yielded a microsomal CLint at 0.5 μM [1] of 30 to 60 µL/min/mg.
Compound COc1cccc(S(=O)(=O)c2cnc3c(N4CC(O)C4)cccc3c2)c1 [Example 14, 1-[3-(3-Methoxyphenyl)sulfonyl-8-quinolyl]azetidin-3-ol] has a pKi (h-5-HT6 receptor) of 7.00 to 8.00.
With NC(=O)C1CCCN(c2cccc3cc(S(=O)(=O)c4cccc(C(F)(F)F)c4)cnc23)C1 (centres unmarked) [Example 46, 1-[3-(3-Trifluoromethyl-benzenesulfonyl)-quinolin-8-yl]-piperidine-3-carboxylic Acid Amide] the pKi (h-5-HT6 receptor) was > 8.00.
Work on O=S(=O)(c1cnc2c(F)cccc2c1)c1ccccc1N1CCC(O)CC1 [Example 25, 1-[2-[(8-Fluoro-3-quinolyl)sulfonyl]phenyl]piperidin-4-ol] yielded a pKi (h-5-HT6 receptor) of 7.00 to 8.00.
For COC1CCN(c2cccc(S(=O)(=O)c3cnc4c(N5CCC(C(=O)O)CC5)cccc4c3)c2)C1 (centres unmarked) [Example 54, 1-[3-[3-(3-Methoxypyrrolidin-1-yl)phenyl]sulfonyl-8-quinolyl]piperidine-4-carboxylic Acid], the microsomal CLint at 0.5 μM [1] was < 30 µL/min/mg.
In the case of O=C(O)C1CCN(c2cccc3cc(S(=O)(=O)c4cccc(N5CCNCC5)c4)cnc23)CC1 [Example 55, 1-[3-(3-Piperazin-1-ylphenyl)sulfonyl-8-quinolyl]piperidine-4-carboxylic Acid], the microsomal CLint at 0.5 μM [1] was < 30 µL/min/mg.
With O=C(O)CC1CCN(c2cccc3cc(S(=O)(=O)c4cccc(C(F)(F)F)c4)cnc23)CC1 [Example 57, 2-[1-[3-[3-(Trifluoromethyl)phenyl]sulfonyl-8-quinolyl]-4-piperidyl]acetic Acid] the microsomal CLint at 0.5 μM [1] was < 30 µL/min/mg.
For Cc1cccc(S(=O)(=O)c2cnc3c(N4CCC(C(=O)O)CC4)cccc3c2)c1 [Example 50, 1-[3-(m-Tolylsulfonyl)-8-quinolyl]piperidine-4-carboxylic Acid], the microsomal CLint at 0.5 μM [1] was < 30 µL/min/mg.
In the case of O=C(O)C1CCN(c2cccc3cc(S(=O)(=O)c4cccc(F)c4)cnc23)CC1 [Example 52, 1-[3-(3-Fluorophenyl)sulfonyl-8-quinolyl]piperidine-4-carboxylic Acid], the microsomal CLint at 0.5 μM [1] was 30 to 60 µL/min/mg.
Work on COc1ccc(C)cc1S(=O)(=O)c1cnc2c(N3CCC(O)CC3)cccc2c1 [Example 35, 1-[3-(2-Methoxy-5-methyl-phenyl)sulfonyl-8-quinolyl]piperidin-4-ol] yielded a pKi (h-5-HT6 receptor) of 7.00 to 8.00.
With N#Cc1cccc(S(=O)(=O)c2cnc3c(N4CCC(C(=O)O)CC4)cccc3c2)c1 [Example 47, 1-[3-(3-Cyanophenyl)sulfonyl-8-quinolyl]piperidine-4-carboxylic Acid] the microsomal CLint at 0.5 μM [1] was < 30 µL/min/mg.
For CN1CCN(c2cccc(S(=O)(=O)c3cnc4c(N5CCC(C(=O)O)CC5)cccc4c3)c2)CC1 [Example 56, 1-[3-[3-(4-Methylpiperazin-1-yl)phenyl]sulfonyl-8-quinolyl]piperidine-4-carboxylic Acid], the microsomal CLint at 0.5 μM [1] was < 30 µL/min/mg.
O=S(=O)(c1cnc2c(F)cccc2c1)c1ccccc1N1CC(O)C1 [Example 38, 1-[2-[(8-Fluoro-3-quinolyl)sulfonyl]phenyl]azetidin-3-ol] showed a pKi (h-5-HT6 receptor) of 6.30 to 7.00.
For O=S(=O)(c1cccc(F)c1)c1cnc2c(N3CC[C@H](O)C3)cccc2c1 [Example 26, (3S)-1-[3-(3-Fluorophenyl)sulfonyl-8-quinolyl]pyrrolidin-3-ol], the pKi (h-5-HT6 receptor) was > 8.00.
